Test results published in patent publication US20240391936A1, “TETRAHYDROTHIENO PYRIDINE DERIVATIVES AS DDRS INHIBITORS” (CHIESI FARMACEUTICI S.P.A., priority 2021, published 2024).

Columns and labels:
DDR1 [1] = target: T1, DDR1 (Homo sapiens, UniProt Q08345); experiment: DDR1 binding assay (LanthaScreen Europium Kinase Binding assay); parameters: purchased Carna Biosciences; conditions: binding assay, 5 nM DDR1, 20 nM Kinase Tracer 178; Ki from IC50 by Cheng-Prusoff; read-out: Ki DDR1
Method: (§1) DDR1 and DDR2 binding assays were performed using Life Technologies LanthaScreen™ Europium Kinase Binding assay. The compounds were incubated with 5 nM DDR1 (Carna Biosciences) or 5 nM DDR2 (Life Technologies) for 1 hour at room temperature in white 384-well OptiPlate (PerkinElmer), containing 20 nM or 10 nM Kinase Tracer 178 respectively and 2 nM Europium labelled anti-GST antibody (Life Technologies) in assay buffer (50 mM HEPES pH 7.5, 10 mM MgCl2, 1 mM EGTA and 0.01% BRIJ35).
(§2) The ratio of fluorescence emission 665 nm/615 nm after excitation at 340 nm was obtained using the Tecan Spark 20M plate reader. IC50 values were determined in GraphPad Prism 7.0 software, using 4 parameter model: log(inhibitor) vs. response. IC50 values were converted in Ki using the Cheng-Prusoff equation

DDR2 = target: T2, DDR2 (Homo sapiens, UniProt Q16832); experiment: DDR2 binding assay (LanthaScreen Europium Kinase Binding assay); parameters: purchased Life Technologies; conditions: binding assay, 5 nM DDR2, 10 nM Kinase Tracer 178; Ki from IC50 by Cheng-Prusoff; read-out: Ki DDR2
T2 sequence (Q16832 22-855): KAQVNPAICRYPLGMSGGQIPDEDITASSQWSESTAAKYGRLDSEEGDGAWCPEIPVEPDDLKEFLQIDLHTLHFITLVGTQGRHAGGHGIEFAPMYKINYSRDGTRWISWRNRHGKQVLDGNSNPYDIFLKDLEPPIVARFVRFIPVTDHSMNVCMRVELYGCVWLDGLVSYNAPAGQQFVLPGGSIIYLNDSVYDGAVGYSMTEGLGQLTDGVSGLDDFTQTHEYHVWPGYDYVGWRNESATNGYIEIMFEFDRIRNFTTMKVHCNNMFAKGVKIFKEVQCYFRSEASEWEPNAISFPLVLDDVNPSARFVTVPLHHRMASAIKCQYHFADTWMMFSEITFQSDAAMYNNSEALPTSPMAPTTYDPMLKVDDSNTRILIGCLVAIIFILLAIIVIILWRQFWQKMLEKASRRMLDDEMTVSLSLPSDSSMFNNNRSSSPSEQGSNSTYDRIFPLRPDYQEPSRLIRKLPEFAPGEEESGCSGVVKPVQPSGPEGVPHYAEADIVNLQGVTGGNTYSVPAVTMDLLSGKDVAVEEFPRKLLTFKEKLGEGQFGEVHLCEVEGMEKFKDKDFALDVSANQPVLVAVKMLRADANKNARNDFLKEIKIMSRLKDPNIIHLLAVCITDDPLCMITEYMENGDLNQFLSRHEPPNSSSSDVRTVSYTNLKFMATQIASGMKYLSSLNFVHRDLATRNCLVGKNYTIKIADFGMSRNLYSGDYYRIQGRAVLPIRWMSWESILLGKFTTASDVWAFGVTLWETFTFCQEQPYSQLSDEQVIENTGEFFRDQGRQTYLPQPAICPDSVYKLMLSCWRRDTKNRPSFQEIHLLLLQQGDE
Method: as §1, §2

DDR1 [2] = target: T1, DDR1; experiment: DDR1 cell based assay (PathHunter U2OS DDR1 assay); parameters: host or cells: U2OS-DDR1 (PathHunter); conditions: U2OS-DDR1 cells, bovine Type II Collagen 20 μg/ml
Method: The inhibition of DDR1 receptor activation by compounds was evaluated by PathHunter® U2OS DDR1 assay (Eurofins DiscoverX), according to the manufacturer's instructions. Briefly, U2OS-DDR1 cells were seeded in white 384-well plates at a density of 5000 cells/well and incubated for 2 hours at 37° C. and 5% CO2. Cells were then treated with compounds at different concentrations and incubated for 30 minutes, before stimulation with bovine Type II Collagen 20 μg/ml and incubation overnight at 37° C. and 5% CO2. PathHunter Detection Reagents were prepared according to the protocol provided by DiscoverX and 20 μl/well of this mix were added to each well. After incubating the plates for 1 hour at room temperature in the dark, luminescence signal was acquired with a plate reader. Raw data were normalized to vehicle control (0% for normalization) and positive control (100% for normalization; cells treated with 20 μg/ml collagen II) and IC50 parameters were calculated in GraphPad Prism 8.0 software, using sigmoidal dose-response curve fitting with variable slope.

T1 sequence (Q08345 19-913): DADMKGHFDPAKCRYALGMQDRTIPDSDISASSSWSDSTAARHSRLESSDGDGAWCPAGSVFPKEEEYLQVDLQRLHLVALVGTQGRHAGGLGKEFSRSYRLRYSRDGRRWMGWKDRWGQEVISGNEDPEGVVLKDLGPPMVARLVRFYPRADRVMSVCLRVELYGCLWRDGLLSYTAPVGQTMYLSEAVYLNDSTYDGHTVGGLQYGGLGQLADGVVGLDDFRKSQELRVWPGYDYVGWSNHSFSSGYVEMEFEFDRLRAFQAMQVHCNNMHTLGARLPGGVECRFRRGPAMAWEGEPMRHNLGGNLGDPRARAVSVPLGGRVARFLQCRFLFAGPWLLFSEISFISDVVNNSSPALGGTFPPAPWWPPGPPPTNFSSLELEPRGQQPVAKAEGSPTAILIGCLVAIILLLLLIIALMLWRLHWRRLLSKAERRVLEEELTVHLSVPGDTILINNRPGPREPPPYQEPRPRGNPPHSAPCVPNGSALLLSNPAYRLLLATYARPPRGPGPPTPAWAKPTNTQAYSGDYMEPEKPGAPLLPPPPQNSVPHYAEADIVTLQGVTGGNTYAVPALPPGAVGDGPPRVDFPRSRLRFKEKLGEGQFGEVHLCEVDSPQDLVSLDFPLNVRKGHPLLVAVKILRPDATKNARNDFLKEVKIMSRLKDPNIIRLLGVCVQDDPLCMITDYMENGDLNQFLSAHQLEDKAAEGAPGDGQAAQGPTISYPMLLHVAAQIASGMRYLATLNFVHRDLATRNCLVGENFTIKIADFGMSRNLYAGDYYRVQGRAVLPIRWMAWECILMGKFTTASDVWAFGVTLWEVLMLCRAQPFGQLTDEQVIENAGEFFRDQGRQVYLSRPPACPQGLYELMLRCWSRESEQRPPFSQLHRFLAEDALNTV

Structure (SMILES)	Ki (DDR1 [1])	Ki (DDR2)	IC50 (DDR1 [2])
CC(C)Cc1cc(NC(=O)c2csc3c2CCN(C(=O)c2cnc4ccccn24)C3)n(C)n1 [Example 43, 6-(imidazo[1,2-a]pyridine-3-carbonyl)-N-(3-isobutyl-1-methyl-1H-pyrazol-5-yl)-4,5,6,7-tetrahydrothieno[2,3-c]pyridine-3-carboxamide]	< 25 nM	< 25 nM	25 to 50 nM
CN(C)[C@H]1CCN(Cc2cc(NC(=O)c3csc4c3CCN(C(=O)c3cnc5ccccn35)C4)cc(C(F)(F)F)c2)C1 [Example 44, (S)-N-(3-((3-(dimethylamino)pyrrolidin-1-yl)methyl)-5-(trifluoromethyl)phenyl)-6-(imidazo[1,2-a]pyridine-3-carbonyl)-4,5,6,7-tetrahydrothieno[2,3-c]pyridine-3-carboxamide]	< 25 nM	< 25 nM	25 to 50 nM
CN(C)[C@@H]1CCN(Cc2cc(NC(=O)c3csc4c3CCN(C(=O)c3cnc5ccccn35)C4)cc(C(F)(F)F)c2)C1 [Example 45, (R)-N-(3-((3-(dimethylamino)pyrrolidin-1-yl)methyl)-5-(trifluoromethyl)-phenyl)-6-(imidazo[1,2-a]pyridine-3-carbonyl)-4,5,6,7-tetrahydrothieno[2,3-c]pyridine-3-carboxamide]	< 25 nM	< 25 nM	25 to 50 nM
CC(C)(C)c1coc(NC(=O)c2csc3c2CCN(C(=O)c2cnc4ccccn24)C3)n1 [Example 47, N-(4-(tert-butyl)oxazol-2-yl)-6-(imidazo[1,2-a]pyridine-3-carbonyl)-4,5,6,7-tetrahydrothieno[2,3-c]pyridine-3-carboxamide]	< 25 nM	< 25 nM	25 to 50 nM
CN(C)C1CCN(Cc2cc(NC(=O)c3csc4c3CCN(C(=O)c3cnc5ccccn35)C4)cc(C(F)(F)F)c2)CC1 [Example 48, N-(3-((4-(dimethylamino)piperidin-1-yl)methyl)-5-(trifluoromethyl)phenyl)-6-(imidazo[1,2-a]pyridine-3-carbonyl)-4,5,6,7-tetrahydrothieno[2,3-c]pyridine-3-carboxamide]	< 25 nM	25 to 50 nM	50 to 80 nM
O=C(Nc1cc(CN2CCC23COC3)cc(C(F)(F)F)c1)c1csc2c1CCN(C(=O)c1cnc3ccccn13)C2 [Example 49, N-(3-((6-oxa-1-azaspiro[3.3]heptan-1-yl)methyl)-5-(trifluoromethyl)phenyl)-6-(imidazo[1,2-a]pyridine-3-carbonyl)-4,5,6,7-tetrahydrothieno[2,3-c]pyridine-3-carboxamide]	< 25 nM	< 25 nM	< 25 nM
O=C(Nc1cc(CN2CC3CC2CO3)cc(C(F)(F)F)c1)c1csc2c1CCN(C(=O)c1cnc3ccccn13)C2 (stereo not drawn) [Example 50, N-(3-((2-oxa-5-azabicyclo[2.2.1]heptan-5-yl)methyl)-5-(trifluoromethyl)phenyl)-6-(imidazo[1,2-a]pyridine-3-carbonyl)-4,5,6,7-tetrahydrothieno[2,3-c]pyridine-3-carboxamide]	< 25 nM	< 25 nM	25 to 50 nM
O=C(Nc1cc(CN2CCC(F)C2)cc(C(F)(F)F)c1)c1csc2c1CCN(C(=O)c1cnc3ccccn13)C2 (stereo not drawn) [Example 51, N-(3-((3-fluoropyrrolidin-1-yl)methyl)-5-(trifluoromethyl)phenyl)-6-(imidazo[1,2-a]pyridine-3-carbonyl)-4,5,6,7-tetrahydrothieno[2,3-c]pyridine-3-carboxamide]	< 25 nM	< 25 nM	25 to 50 nM
O=C(Nc1cc(CN2CCC2)cc(C(F)(F)F)c1)c1csc2c1CCN(C(=O)c1cnc3ccccn13)C2 [Example 52, N-(3-(azetidin-1-ylmethyl)-5-(trifluoromethyl)phenyl)-6-(imidazo[1,2-a]pyridine-3-carbonyl)-4,5,6,7-tetrahydrothieno[2,3-c]pyridine-3-carboxamide]	< 25 nM	< 25 nM	< 25 nM
CN(Cc1cc(NC(=O)c2csc3c2CCN(C(=O)c2cnc4ccccn24)C3)cc(C(F)(F)F)c1)C1COC1 [Example 53, 6-(imidazo[1,2-a]pyridine-3-carbonyl)-N-(3-((methyl(oxetan-3-yl)amino)methyl)-5-(trifluoromethyl)phenyl)-4,5,6,7-tetrahydrothieno[2,3-c]pyridine-3-carboxamide]	< 25 nM	< 25 nM	50 to 80 nM
O=C(Nc1cc(CN2CCN(C3COC3)CC2)cc(C(F)(F)F)c1)c1csc2c1CCN(C(=O)c1cnc3ccccn13)C2 [Example 54, 6-(imidazo[1,2-a]pyridine-3-carbonyl)-N-(3-((4-(oxetan-3-yl)piperazin-1-yl)methyl)-5-(trifluoromethyl)phenyl)-4,5,6,7-tetrahydrothieno[2,3-c]pyridine-3-carboxamide]	< 25 nM	< 25 nM	50 to 80 nM
CN(C)CC1CCN(Cc2cc(NC(=O)c3csc4c3CCN(C(=O)c3cnc5ccccn35)C4)cc(C(F)(F)F)c2)C1 (stereo not drawn) [Example 55, N-(3-((3-((dimethylamino)methyl)pyrrolidin-1-yl)methyl)-5-(trifluoromethyl)phenyl)-6-(imidazo[1,2-a]pyridine-3-carbonyl)-4,5,6,7-tetrahydrothieno[2,3-c]pyridine-3-carboxamide]	< 25 nM	< 25 nM	50 to 80 nM
CN(C)C1CCN(Cc2cc(NC(=O)c3csc4c3CCN(C(=O)c3cnc5ccccn35)C4)cc(C(F)(F)F)c2)C1 (stereo not drawn) [Example 56, N-(3-((3-(dimethylamino)pyrrolidin-1-yl)methyl)-5-(trifluoromethyl)phenyl)-6-(imidazo[1,2-a]pyridine-3-carbonyl)-4,5,6,7-tetrahydrothieno[2,3-c]pyridine-3-carboxamide]	< 25 nM	< 25 nM	< 25 nM
CN(CCO)Cc1cc(NC(=O)c2csc3c2CCN(C(=O)c2cnc4ccccn24)C3)cc(C(F)(F)F)c1 [Example 57, N-(3-(((2-hydroxyethyl)(methyl)amino)methyl)-5-(trifluoromethyl)phenyl)-6-(imidazo[1,2-a]pyridine-3-carbonyl)-4,5,6,7-tetrahydrothieno[2,3-c]pyridine-3-carboxamide]	< 25 nM	< 25 nM	< 25 nM
CC(=O)N1CCN(Cc2cc(NC(=O)c3csc4c3CCN(C(=O)c3cnc5ccccn35)C4)cc(C(F)(F)F)c2)CC1 [Example 58, N-(3-((4-acetylpiperazin-1-yl)methyl)-5-(trifluoromethyl)phenyl)-6-(imidazo[1,2-a]pyridine-3-carbonyl)-4,5,6,7-tetrahydrothieno[2,3-c]pyridine-3-carboxamide]	< 25 nM	< 25 nM	25 to 50 nM
CN1CCN(Cc2cc(NC(=O)c3csc4c3CCN(C(=O)c3cnc5ccccn35)C4)cc(C(F)(F)F)c2)CC1=O [Example 59, 6-(imidazo[1,2-a]pyridine-3-carbonyl)-N-(3-((4-methyl-3-oxopiperazin-1-yl)methyl)-5-(trifluoromethyl)phenyl)-4,5,6,7-tetrahydrothieno[2,3-c]pyridine-3-carboxamide]	25 to 50 nM	25 to 50 nM	25 to 50 nM
